Experimental data as given in patent publication US12065442B2, “Tropomyosin receptor kinase (TRK) degradation compounds and methods of use” (Cullgen (Shanghai), Inc., priority 2018, dated 2024).
pIC50: −log10 of the molar value. “Also recorded” adds a separate entry of the source.

System: KM12 cells
Test: Cell viability assay (CellTiter-Glo) in KM12 cells
Format: cell-based
Conditions: 500 nM, 12-point 2-fold serial dilution, 3 days (FIG. 4A)

In the case of `O=C1CCC(N2C(=O)c3cccc(NCCOCCOCCOCCC(=O)N4CCN(c5cccc(-c6cnc7ccc(N8CCC[C@@H]8c8cccc(F)c8)nn67)n5)CC4)c3C2=O)C(=O)N1` (stereo partly drawn) [CPD-010, 2-(2,6-Dioxopiperidin-3-yl)-4-((2-(2-(2-(3-(4-(6-(6-((R)-2-(3-fluorophenyl)pyrrolidin-1-yl)imidazo[1,2-b]pyridazin-3-yl)pyridin-2-yl)piperazin-1-yl)-3-oxopropoxy)ethoxy)ethoxy)ethyl)amino)isoindoline-1,3-dione], the “viability of KM12 cells” value was “inhibited the viability; also recorded: dose-dependently suppressed viability”.

Same assay, conditions: Homo sapiens, 72 h; Table 2; KM12 cell viability, CellTiter-Glo, 3 days; read-out: IC50

First: Cc1ncsc1-c1ccc(CNC(=O)[C@@H]2C[C@@H](O)CN2C(=O)[C@@H](NC(=O)CCCCC(=O)N2CCN(c3cccc(-c4cnc5ccc(N6CCC[C@@H]6c6cccc(F)c6)nn45)n3)CC2)C(C)(C)C)cc1 [CPD-001, (2S,4R)-1-((S)-2-(6-(4-(6-(6-((R)-2-(3-Fluorophenyl)pyrrolidin-1-yl)imidazo[1,2-b]pyridazin-3-yl)pyridin-2-yl)piperazin-1-yl)-6-oxohexanamido)-3,3-dimethylbutanoyl)-4-hydroxy-N-(4-(4-methylthiazol-5-yl)benzyl)pyrrolidine-2-carboxamide]
Second: Cc1ncsc1-c1ccc(CNC(=O)[C@@H]2C[C@@H](O)CN2C(=O)[C@@H](NC(=O)CCCCCC(=O)N2CCN(c3cccc(-c4cnc5ccc(N6CCC[C@@H]6c6cccc(F)c6)nn45)n3)CC2)C(C)(C)C)cc1 [CPD-004, (2S,4R)-1-((S)-2-(7-(4-(6-(6-((R)-2-(3-Fluorophenyl)pyrrolidin-1-yl)imidazo[1,2-b]pyridazin-3-yl)pyridin-2-yl)piperazin-1-yl)-7-oxoheptanamido)-3,3-dimethylbutanoyl)-4-hydroxy-N-(4-(4-methylthiazol-5-yl)benzyl)pyrrolidine-2-carboxamide]
The pIC50 of the first is lower: less than 6.00 for the first, 6.75 for the second. The second is the more potent here.

`Cc1ncsc1-c1ccc(CNC(=O)[C@@H]2C[C@@H](O)CN2C(=O)[C@@H](NC(=O)COCCOCC(=O)N2CCN(c3cccc(-c4cnc5ccc(N6CCC[C@@H]6c6cccc(F)c6)nn45)n3)CC2)C(C)(C)C)cc1` [CPD-002, (2S,4R)-1-((S)-2-(2-(2-(2-(4-(6-(6-((R)-2-(3-Fluorophenyl)pyrrolidin-1-yl)imidazo[1,2-b]pyridazin-3-yl)pyridin-2-yl)piperazin-1-yl)-2-oxoethoxy)ethoxy)acetamido)-3,3-dimethylbutanoyl)-4-hydroxy-N-(4-(4-methylthiazol-5-yl)benzyl)pyrrolidine-2-carboxamide] and `Cc1ncsc1-c1ccc(CNC(=O)[C@@H]2C[C@@H](O)CN2C(=O)[C@@H](NC(=O)COCCOCCOCC(=O)N2CCN(c3cccc(-c4cnc5ccc(N6CCC[C@@H]6c6cccc(F)c6)nn45)n3)CC2)C(C)(C)C)cc1` [CPD-011, (2S,4R)-1-((S)-2-(tert-butyl)-14-(4-(6-(6-((R)-2-(3-Fluorophenyl)pyrrolidin-1-yl)imidazo[1,2-b]pyridazin-3-yl)pyridin-2-yl)piperazin-1-yl)-4,14-dioxo-6,9,12-trioxa-3-azatetradecanoyl)-4-hydroxy-N-(4-(4-methylthiazol-5-yl)benzyl)pyrrolidine-2-carboxamide] cannot be ordered by pIC50: less than 6.00 for the first, less than 6.00 for the second.

`Cc1ncsc1-c1ccc(CNC(=O)[C@@H]2C[C@@H](O)CN2C(=O)[C@@H](NC(=O)COCCOCCOCCOCCOCC(=O)N2CCN(c3cccc(-c4cnc5ccc(N6CCC[C@@H]6c6cccc(F)c6)nn45)n3)CC2)C(C)(C)C)cc1` [CPD-003, (2S,4R)-1-((S)-2-(tert-butyl)-20-(4-(6-(6-((R)-2-(3-Fluorophenyl)pyrrolidin-1-yl)imidazo[1,2-b]pyridazin-3-yl)pyridin-2-yl)piperazin-1-yl)-4,20-dioxo-6,9,12,15,18-pentaoxa-3-azaicosanoyl)-4-hydroxy-N-(4-(4-methylthiazol-5-yl)benzyl)pyrrolidine-2-carboxamide] and `Cc1ncsc1-c1ccc(CNC(=O)[C@@H]2C[C@@H](O)CN2C(=O)[C@@H](NC(=O)CCOCCOCCOCCOCCOCCC(=O)N2CCN(c3cccc(-c4cnc5ccc(N6CCC[C@@H]6c6cccc(F)c6)nn45)n3)CC2)C(C)(C)C)cc1` [CPD-005, (2S,4R)-1-((S)-2-(tert-butyl)-22-(4-(6-(6-((R)-2-(3-Fluorophenyl)pyrrolidin-1-yl)imidazo[1,2-b]pyridazin-3-yl)pyridin-2-yl)piperazin-1-yl)-4,22-dioxo-7,10,13,16,19-pentaoxa-3-azadocosanoyl)-4-hydroxy-N-(4-(4-methylthiazol-5-yl)benzyl)pyrrolidine-2-carboxamide] cannot be ordered by pIC50: less than 6.00 for the first, less than 6.00 for the second.

First: Cc1ncsc1-c1ccc(CNC(=O)[C@@H]2C[C@@H](O)CN2C(=O)[C@@H](NC(=O)CCC(=O)N2CCN(c3cccc(-c4cnc5ccc(N6CCC[C@@H]6c6cccc(F)c6)nn45)n3)CC2)C(C)(C)C)cc1 [CPD-006, (2S,4R)-1-((S)-2-(4-(4-(6-(6-((R)-2-(3-Fluorophenyl)pyrrolidin-1-yl)imidazo[1,2-b]pyridazin-3-yl)pyridin-2-yl)piperazin-1-yl)-4-oxobutanamido)-3,3-dimethylbutanoyl)-4-hydroxy-N-(4-(4-methylthiazol-5-yl)benzyl)pyrrolidine-2-carboxamide]
Second: Cc1ncsc1-c1ccc(CNC(=O)[C@@H]2C[C@@H](O)CN2C(=O)[C@@H](NC(=O)CCCC(=O)N2CCN(c3cccc(-c4cnc5ccc(N6CCC[C@@H]6c6cccc(F)c6)nn45)n3)CC2)C(C)(C)C)cc1 [CPD-012, (2S,4R)-1-((S)-2-(5-(4-(6-(6-((R)-2-(3-Fluorophenyl)pyrrolidin-1-yl)imidazo[1,2-b]pyridazin-3-yl)pyridin-2-yl)piperazin-1-yl)-5-oxopentanamido)-3,3-dimethylbutanoyl)-4-hydroxy-N-(4-(4-methylthiazol-5-yl)benzyl)pyrrolidine-2-carboxamide]
The pIC50 of the first is higher: 6.30 for the first, less than 6.00 for the second. The first is the more potent here.

First: Cc1ncsc1-c1ccc(CNC(=O)[C@@H]2C[C@@H](O)CN2C(=O)[C@@H](NC(=O)CCOCCC(=O)N2CCN(c3cccc(-c4cnc5ccc(N6CCC[C@@H]6c6cccc(F)c6)nn45)n3)CC2)C(C)(C)C)cc1 [CPD-007, (2S,4R)-1-((S)-2-(3-(3-(4-(6-(6-((R)-2-(3-Fluorophenyl)pyrrolidin-1-yl)imidazo[1,2-b]pyridazin-3-yl)pyridin-2-yl)piperazin-1-yl)-3-oxopropoxy)propanamido)-3,3-dimethylbutanoyl)-4-hydroxy-N-(4-(4-methylthiazol-5-yl)benzyl)pyrrolidine-2-carboxamide]
Second: Cc1ncsc1-c1ccc(CNC(=O)[C@@H]2C[C@@H](O)CN2C(=O)[C@@H](NC(=O)CCOCCOCCOCCC(=O)N2CCN(c3cccc(-c4cnc5ccc(N6CCC[C@@H]6c6cccc(F)c6)nn45)n3)CC2)C(C)(C)C)cc1 [CPD-016, (2S,4R)-1-((S)-2-(tert-butyl)-16-(4-(6-(6-((R)-2-(3-Fluorophenyl)pyrrolidin-1-yl)imidazo[1,2-b]pyridazin-3-yl)pyridin-2-yl)piperazin-1-yl)-4,16-dioxo-7,10,13-trioxa-3-azahexadecanoyl)-4-hydroxy-N-(4-(4-methylthiazol-5-yl)benzyl)pyrrolidine-2-carboxamide]
The pIC50 of the first is lower: less than 6.00 for the first, 6.82 for the second. The second is the more potent here.

Going from `Cc1ncsc1-c1ccc(CNC(=O)[C@@H]2C[C@@H](O)CN2C(=O)[C@@H](NC(=O)COCC(=O)N2CCN(c3cccc(-c4cnc5ccc(N6CCC[C@@H]6c6cccc(F)c6)nn45)n3)CC2)C(C)(C)C)cc1` [CPD-008, (2S,4R)-1-((S)-2-(2-(2-(4-(6-(6-((R)-2-(3-Fluorophenyl)pyrrolidin-1-yl)imidazo[1,2-b]pyridazin-3-yl)pyridin-2-yl)piperazin-1-yl)-2-oxoethoxy)acetamido)-3,3-dimethylbutanoyl)-4-hydroxy-N-(4-(4-methylthiazol-5-yl)benzyl)pyrrolidine-2-carboxamide] to `Cc1ncsc1-c1ccc(CNC(=O)[C@@H]2C[C@@H](O)CN2C(=O)[C@@H](NC(=O)CCCCCCCCC(=O)N2CCN(c3cccc(-c4cnc5ccc(N6CCC[C@@H]6c6cccc(F)c6)nn45)n3)CC2)C(C)(C)C)cc1` [CPD-017, (2S,4R)-1-((S)-2-(10-(4-(6-(6-((R)-2-(3-Fluorophenyl)pyrrolidin-1-yl)imidazo[1,2-b]pyridazin-3-yl)pyridin-2-yl)piperazin-1-yl)-10-oxodecanamido)-3,3-dimethylbutanoyl)-4-hydroxy-N-(4-(4-methylthiazol-5-yl)benzyl)pyrrolidine-2-carboxamide], the pIC50 rises from less than 6.00 to 6.84.

Going from `O=C1CCC(N2C(=O)c3cccc(NCCCCCCC(=O)N4CCN(c5cccc(-c6cnc7ccc(N8CCC[C@@H]8c8cccc(F)c8)nn67)n5)CC4)c3C2=O)C(=O)N1` (stereo partly drawn) [CPD-009, 2-(2,6-Dioxopiperidin-3-yl)-4-((7-(4-(6-(6-((R)-2-(3-fluorophenyl)pyrrolidin-1-yl)imidazo[1,2-b]pyridazin-3-yl)pyridin-2-yl)piperazin-1-yl)-7-oxoheptyl)amino)isoindoline-1,3-dione] to `O=C1CCC(N2C(=O)c3cccc(NCCCCCC(=O)N4CCN(c5cccc(-c6cnc7ccc(N8CCC[C@@H]8c8cccc(F)c8)nn67)n5)CC4)c3C2=O)C(=O)N1` (stereo partly drawn) [CPD-015], the pIC50 rises from 7.46 to 7.83 (0.37 log units).

First: O=C1CCC(N2C(=O)c3cccc(NCCOCCOCCOCCC(=O)N4CCN(c5cccc(-c6cnc7ccc(N8CCC[C@@H]8c8cccc(F)c8)nn67)n5)CC4)c3C2=O)C(=O)N1 (stereo partly drawn) [CPD-010, 2-(2,6-Dioxopiperidin-3-yl)-4-((2-(2-(2-(3-(4-(6-(6-((R)-2-(3-fluorophenyl)pyrrolidin-1-yl)imidazo[1,2-b]pyridazin-3-yl)pyridin-2-yl)piperazin-1-yl)-3-oxopropoxy)ethoxy)ethoxy)ethyl)amino)isoindoline-1,3-dione]
Second: O=C1CCC(N2C(=O)c3cccc(NCCCC(=O)N4CCN(c5cccc(-c6cnc7ccc(N8CCC[C@@H]8c8cccc(F)c8)nn67)n5)CC4)c3C2=O)C(=O)N1 (stereo partly drawn) [CPD-013, 2-(2,6-Dioxopiperidin-3-yl)-4-((4-(4-(6-(6-((R)-2-(3-fluorophenyl)pyrrolidin-1-yl)imidazo[1,2-b]pyridazin-3-yl)pyridin-2-yl)piperazin-1-yl)-4-oxobutyl)amino)isoindoline-1,3-dione]
The pIC50 of the first is 0.47 log units lower: 7.52 for the first, 7.99 for the second. The second is the more potent here.

`O=C1CCC(N2C(=O)c3cccc(NCCCCC(=O)N4CCN(c5cccc(-c6cnc7ccc(N8CCC[C@@H]8c8cccc(F)c8)nn67)n5)CC4)c3C2=O)C(=O)N1` (stereo partly drawn) [CPD-014, 2-(2,6-Dioxopiperidin-3-yl)-4-((5-(4-(6-(6-((R)-2-(3-fluorophenyl)pyrrolidin-1-yl)imidazo[1,2-b]pyridazin-3-yl)pyridin-2-yl)piperazin-1-yl)-5-oxopentyl)amino)isoindoline-1,3-dione] was tested, and the pIC50 was 8.10.
